Results on 6 compounds are retold here after article PMC9291687.

Series [1] has as its system PC-3 cells. The series can be described thus: Cell cycle analysis by flow cytometry (PI staining). It counts as cell-based, human. Background: A flow cytometer gives signals particle by particle.
For series [2], the target named is EGFR^T790M (Homo sapiens, UniProt P00533, T790M). The series can be described thus: EGFRT790M kinase inhibitory assay (HTRF). For orientation: In TR-FRET formats the signal depends on donor and acceptor labels being close together.
Procedure: (§1) In vitro EGFR inhibitory activity was assessed using Homogeneous time-resolved fluorescence (HTRF) assay[64] as described in Supplementary data.
(§2) The IC50 values were calculated using the nonlinear regression fitting models (Graph Pad, Prism Version 5).
(§3) EGFRWT and EGFRT790M kinase inhibitory assay
(§4) Homogeneous time resolved fluorescence (HTRF) assay was applied in this test.
(§5) EGFRWT, EGFRT790M (Sigma). firstly, the EGFRWT and/or EGFRT790M and their substrates were incubated with the tested compounds in enzymatic buffer for 5 min.
(§6) into the reaction mixture to allow starting the enzymatic reaction. The assay was conducted for 30 min at room temperature. The reaction was stopped by addition of detection reagents which contain
(§7) GraphPad Prism 5.0. Three independent experiments were performed for each concentration.
The subject of series [3] is lung cancer (A-549). The series can be described thus: MTT antiproliferative assay, A-549. Conditions: Homo sapiens; for inhibition at 100 µM: A549, read-out: Growth inhibition (%) A549; for IC50: A549, read-out: IC50 A-549, MTT, mean of at least three experiments.
Procedure: (§8) Preliminary screening against the cancer cell lines was performed, using doxorubicin as a reference drug at doses of 100 μM.
(§9) In vitro cytotoxicity was carried out using MTT assay protocol[63] as described in Supplementary data.
(§10) proliferative activity was assessed quantitatively as follows;
(§11) Human cancer cell lines were dropped in 96-well plates at a density of 3-8 × 10^3 cells/well.
(§12) growth medium was exchanged with 0.1 ml of fresh medium containing graded concentrations of the test compounds to be or equal DMSO and incubated for two days. Then 10 μl MTT solution (0.5 mg/ml) was added to each well, and the cells were incubated for additional 4 h. The crystals of MTT-formazan were dissolved in 100 μl of DMSO; the absorbance of each well was measured at 490 nm using an automatic ELISA reader system (TECAN, CHE). The IC50 values were calculated using the nonlinear regression fitting models (Graph Pad, Prism Version 5). The data represented the mean of three independent experiments in triplicate and were expressed as means
(§13) The results were expressed as growth inhibitory concentration (IC50) values and
Series [4] deals with breast cancer (MCF-7). Description: MTT antiproliferative assay, MCF-7. The settings on record: Homo sapiens; for inhibition at 100 µM: MCF7, read-out: Growth inhibition (%) MCF-7. (Tetrazolium assays rely on reduction of a dye to a coloured formazan, in cell work by metabolically active cells.)
Procedure: as §8, §9, §10, §11, §12, §13
For series [5], the system named is prostate cancer (PC-3). Description: MTT antiproliferative assay, PC-3. Conditions: Homo sapiens; for inhibition at 100 µM: read-out: Growth inhibition (%) PC-3; for IC50: read-out: IC50 PC-3.
Procedure: as §8, §9, §10, §11, §12, §13
Series [6] has as its system PC-3 cells. The series can be described thus: Annexin V-FITC/PI apoptosis assay. It counts as cell-based, human. The settings on record: PC-3, 7.98 µM, 24 h. The procedure:
The results were depicted in (Figure 6 and Supplementary data).
The effect of compound 8a on cell apoptosis was investigated as described in Supplementary data[76–78].
4.1.3. Annexin V-FITC apoptosis assay.
To detect the apoptosis induced by compound 8a, PC-3 cells were seeded and incubated overnight […]
the negative control. After that, the cells were collected and washed with PBS two successive times. The cells were exposed to centrifugation. Apoptosis detection kit (BD Biosciences, San Jose, CA) was used in this test. According to the manufacturer's protocol the cells were stained by Annexin V-FITC and propidium iodide (PI) in the binding buffer for 20min at room temperature in the dark. Using a flow cytometer, Annexin V-FITC and PI binding were analyzed. flowjo software was used to analyze the frequencies in all quadrants.
Cell cycle distribution (%)

Series [7] concerns caspase-3 in PC-3 cells. Description: Caspase-3 determination (ELISA). Conditions: for Caspase-3 level: 24 h treatment, 8a at 3.04 µM, control 84.24, mean ± SEM. It counts as cell-based, human.
The target in series [8] is EGFR^WT (Homo sapiens, UniProt P00533). The series can be described thus: EGFRWT kinase inhibitory assay (HTRF).
Procedure: as §1, §2, §3, §4, §5, §6, §7
The subject of series [9] is colon cancer (HCT-116). Description: MTT antiproliferative assay, HCT-116. The settings on record: for inhibition at 100 µM / IC50: Homo sapiens; for inhibition at 100 µM: HCT-116, read-out: Growth inhibition (%) HCT-116; for IC50: HCT-116, read-out: IC50 HCT-116; for Cytotoxic activity against HCT-116: MTT.
Procedure: as §8, §9, §10, §11, §12, §13

“And” between values parts separate entries of the source, which are not always exact repeats. Identical values can stand only once. “Also recorded” adds a separate entry of the source. Bounds are passed on as bounds.

Chain of EGFR^T790M (P00533 25-1210 T790M): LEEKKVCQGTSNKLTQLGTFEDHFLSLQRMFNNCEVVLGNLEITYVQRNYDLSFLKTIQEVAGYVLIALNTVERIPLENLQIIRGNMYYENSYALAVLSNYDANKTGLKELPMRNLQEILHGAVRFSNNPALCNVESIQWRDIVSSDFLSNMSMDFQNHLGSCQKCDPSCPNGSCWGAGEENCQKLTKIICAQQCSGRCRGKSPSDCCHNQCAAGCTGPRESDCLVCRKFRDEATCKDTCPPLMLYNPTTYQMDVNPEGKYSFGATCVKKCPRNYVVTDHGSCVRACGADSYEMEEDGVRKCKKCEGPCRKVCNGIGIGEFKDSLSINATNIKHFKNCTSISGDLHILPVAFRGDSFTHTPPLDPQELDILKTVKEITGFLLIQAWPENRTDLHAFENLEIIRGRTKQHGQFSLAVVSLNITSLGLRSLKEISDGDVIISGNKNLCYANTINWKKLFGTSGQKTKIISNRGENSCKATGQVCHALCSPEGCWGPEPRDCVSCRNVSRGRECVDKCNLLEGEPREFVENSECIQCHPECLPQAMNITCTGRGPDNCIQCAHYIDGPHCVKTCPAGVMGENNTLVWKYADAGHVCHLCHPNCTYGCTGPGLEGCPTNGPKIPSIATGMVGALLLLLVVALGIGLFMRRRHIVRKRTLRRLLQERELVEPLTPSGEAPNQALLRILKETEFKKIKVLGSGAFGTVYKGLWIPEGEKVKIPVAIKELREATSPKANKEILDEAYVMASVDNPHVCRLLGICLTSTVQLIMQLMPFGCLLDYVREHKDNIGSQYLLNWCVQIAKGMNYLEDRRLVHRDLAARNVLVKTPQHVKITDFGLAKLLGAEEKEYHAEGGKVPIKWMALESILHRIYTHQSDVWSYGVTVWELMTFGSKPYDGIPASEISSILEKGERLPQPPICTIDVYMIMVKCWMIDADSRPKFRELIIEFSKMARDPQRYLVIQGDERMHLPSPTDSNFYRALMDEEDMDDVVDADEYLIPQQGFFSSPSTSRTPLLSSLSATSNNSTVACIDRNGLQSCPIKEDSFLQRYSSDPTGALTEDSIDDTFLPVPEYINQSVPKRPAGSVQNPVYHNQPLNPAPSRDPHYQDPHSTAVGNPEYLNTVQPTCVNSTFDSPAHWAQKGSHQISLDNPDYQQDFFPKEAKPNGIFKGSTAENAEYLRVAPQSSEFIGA
Chain of EGFR^WT (P00533 25-1210): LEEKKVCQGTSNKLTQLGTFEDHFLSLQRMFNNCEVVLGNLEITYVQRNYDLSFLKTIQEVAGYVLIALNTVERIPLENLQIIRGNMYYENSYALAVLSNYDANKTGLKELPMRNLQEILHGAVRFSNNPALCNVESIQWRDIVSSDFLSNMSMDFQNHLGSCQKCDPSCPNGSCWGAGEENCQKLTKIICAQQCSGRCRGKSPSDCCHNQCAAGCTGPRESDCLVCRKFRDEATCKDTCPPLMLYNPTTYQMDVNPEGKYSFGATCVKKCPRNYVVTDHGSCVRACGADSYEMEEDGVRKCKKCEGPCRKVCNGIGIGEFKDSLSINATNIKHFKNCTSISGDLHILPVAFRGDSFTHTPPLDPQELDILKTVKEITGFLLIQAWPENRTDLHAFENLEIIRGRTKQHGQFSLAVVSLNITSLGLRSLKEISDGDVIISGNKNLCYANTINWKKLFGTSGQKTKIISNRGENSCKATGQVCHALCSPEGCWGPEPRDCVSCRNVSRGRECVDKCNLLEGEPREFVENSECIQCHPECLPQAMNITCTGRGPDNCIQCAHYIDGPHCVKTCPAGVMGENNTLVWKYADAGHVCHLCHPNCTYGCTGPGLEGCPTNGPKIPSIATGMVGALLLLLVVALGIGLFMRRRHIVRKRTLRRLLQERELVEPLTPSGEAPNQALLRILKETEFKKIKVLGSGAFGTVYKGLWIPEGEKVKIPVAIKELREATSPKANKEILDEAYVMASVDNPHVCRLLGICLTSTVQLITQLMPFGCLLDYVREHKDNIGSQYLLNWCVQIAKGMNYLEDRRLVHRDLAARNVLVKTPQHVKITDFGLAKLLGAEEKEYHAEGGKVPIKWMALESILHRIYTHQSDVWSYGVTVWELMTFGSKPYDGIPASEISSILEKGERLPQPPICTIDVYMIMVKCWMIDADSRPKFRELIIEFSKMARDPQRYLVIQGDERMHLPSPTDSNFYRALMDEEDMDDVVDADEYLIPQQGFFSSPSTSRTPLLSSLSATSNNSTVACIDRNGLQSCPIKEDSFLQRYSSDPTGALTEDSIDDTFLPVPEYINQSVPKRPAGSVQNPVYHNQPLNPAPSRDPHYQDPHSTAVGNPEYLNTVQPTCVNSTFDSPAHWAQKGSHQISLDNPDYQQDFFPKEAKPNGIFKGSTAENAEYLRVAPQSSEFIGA

On to `Cc1ccc(-c2cc(-c3ccc(Cl)cc3)nc3nc4[nH]c5ccccc5c(=O)n4c(=O)c23)cc1` [Compound 8a, 2–(4-Chlorophenyl)-4-(p-tolyl)-5H-pyrido[2',3':4,5]pyrimido [2,1-b] quinazoline-5,7(12H)-dione], for which, in [1] (PC-3, 7.98 µM, 24 h), the “Increase of cell population at %S vs control” value is recorded as 1.3 folds. Moreover, the “Increase of cell population at pre-G1 vs control” value in series [1] (PC-3, 7.98 µM, 24 h) worked out at 22 folds. In addition, in series [1] (PC-3, 7.98 µM, 24 h, control 1.78%), the “Cell cycle distribution %Pre-G1” value was 41.06%. The “Cell cycle distribution %G2-M” value in [1] (PC-3, 7.98 µM, 24 h, control 9.75%) came out at 4.93%. Also, the “Cell cycle distribution %S” value in [1] (PC-3, 7.98 µM, 24 h, control 41.03%) is on record as 53.69%. The “Cell cycle distribution %G0-G1” value in series [1] (PC-3, 7.98 µM, 24 h, control 49.22%) was 41.38%. In addition, in [1] (PC-3 cells), the “Cell cycle arrest phase” value is listed as “arrested the cell cycle at pre-G1 phase; also recorded: arrest the PC-3 cell line at pre-G1; also recorded: arrested the cell cycle at the pre-G1 phase”. Besides, the IC50 (commonly the concentration at which inhibition is half-maximal) was found to be 0.123 ± 0.01 µM in [2]; 16.2 ± 2.4 µM in [3]; 7.98 ± 2.4 µM in series [5]; 0.099 ± 0.007 µM in series [8]; 25.6 ± 1.3 µM in series [9]. Moreover, the inhibition – broadly, the percentage by which the read-out fell short of the control – at 100 µM in series [3] stood at 90%; in series [4], 32%; in series [5] it was 98%; in series [9] it was 84%. Moreover, in [6], the “Increase in early apoptosis ratio vs control” value was found to be 32 fold. Also, in series [6], the “Increase in late apoptosis ratio vs control” value was 150 fold. In series [6] (control 0.15%), this compound showed a Late apoptosis of 22.49%. Also, in series [6] (control 0.43%), the Early apoptosis is 13.92%. The compound also displayed a Necrosis in [6] (control 1.20) of 4.65%. For the same compound, in series [6] (control 1.78), the Total apoptosis is 41.06%. In addition, in series [7] (24 h), the “Increase in caspase-3 level vs control cells” value was 5.3 fold. In addition, in series [7], the Caspase-3 level was 452.3 pg/mL and 452.3 ± 10.5 pg/mL. In addition, the “Cytotoxic activity against HCT-116” value in [9] is listed as “mild cytotoxic activity”.
Turning to `COc1ccc(-c2cc(-c3ccc(C)cc3)nc3nc4[nH]c5ccccc5c(=O)n4c(=O)c23)cc1` [Compound 8b, 4–(4-Methoxyphenyl)-2-(p-tolyl)-5H-pyrido[2',3':4,5] pyrimido[2,1-b] quinazoline-5,7(12H)-dione], the melting point (usually the temperature of the solid-liquid transition) was over 300 °C. In [2], the IC50 was 0.29 µM. Besides, in series [3], the inhibition at 100 µM came to 94% and the IC50 turned out to be 16 µM. Also, in series [4], the inhibition at 100 µM amounted to 9%. In series [5], the inhibition at 100 µM came out at 96% and the IC50 was 18 ± 2.3 µM. Also, in series [9], the inhibition at 100 µM turned out to be 67%, the IC50 was 26 ± 1.3 µM and the “Cytotoxic activity against HCT-116” value is reported as “mild cytotoxic activity”.
`COc1cc(-c2cc(-c3ccc(C)cc3)nc3nc4[nH]c5ccccc5c(=O)n4c(=O)c23)cc(OC)c1OC` [Compound 8d, 2-(p-Tolyl)-4–(3,4,5-trimethoxyphenyl)-5H-pyrido[2',3':4,5] pyrimido[2,1-b]quinazoline-5,7(12H)-dione] yielded a melting point of over 300 °C. Also, the midpoint of inhibition in [2], the IC50, lay at 0.29 ± 0.023 µM. In addition, in series [3], the inhibition at 100 µM amounted to 97% and the IC50 was 7.23 ± 2.1 µM. The inhibition at 100 µM in series [4] is 15%. In addition, in series [5], the inhibition at 100 µM was determined as 95% and the IC50 came out at 7.12 ± 2 µM. The IC50 in [8] worked out at 0.419 ± 0.029 µM. Also, in [9], the inhibition at 100 µM worked out at 78%, the IC50 is 70.2 ± 2 µM and the “Cytotoxic activity against HCT-116” value is recorded as “mild cytotoxic activity”.
Consider `NNc1nc2nc(-c3ccc(Cl)cc3)cc(-c3ccc(Cl)cc3Cl)c2c(=O)[nH]1` [Compound 9a, 7-(4-Chlorophenyl)-5–(2,4-dichlorophenyl)-2-hydrazineylpyrido[2,3-d]pyrimidin-4(3H)-one], for which the melting point is 265 to 267 °C. Also, the IC50 in series [2] came out at 0.571 ± 0.046 µM. In series [3], the inhibition at 100 µM turned out to be 42%. For the same compound, the inhibition at 100 µM in series [4] was determined as 68%. The IC50 in series [4] (MCF7, read-out: IC50 MCF-7) is 42 ± 1.2 µM. In addition, in series [5], the inhibition at 100 µM was 90% and the IC50 was found to be 9.26 ± 2.4 µM. The IC50 in series [8] came to 0.594 ± 0.042 µM. The inhibition at 100 µM in series [9] turned out to be 89%.
`COc1cc(-c2cc(-c3ccc(C)cc3)nc3nc4[nH]nc(-c5ccccc5)n4c(=O)c23)cc(OC)c1OC` [Compound 12d, 3-Phenyl-8-(p-tolyl)-6–(3,4,5-trimethoxyphenyl)pyrido[2,3-d][1,2, 4]triazolo [4,3-a]pyrimidin-5(1H)-one] gave a melting point of 322 to 324 °C. Besides, the inhibition at 100 µM in series [3] stood at 4%. Also, the inhibition at 100 µM in series [4] was 15%. Moreover, in [5], the inhibition at 100 µM worked out at 14%. Also, the inhibition at 100 µM in [9] came out at 5%.
Take `CN[C@@H]1C[C@H]2O[C@@](C)([C@@H]1OC)n1c3ccccc3c3c4c(c5c6ccccc6n2c5c31)C(=O)NC4` [Staurosporine, reference compound]: the Caspase-3 level was determined as 413.1 ± 11.66 pg/mL in [7] and 413.1 pg/mL in series [7] (listed as staurosporine).
